Reference: patent publication US20200331925A1, “HETEROCYCLIC COMPOUNDS FOR THE TREATMENT OF ABNORMAL CELLULAR PROLIFERATION” (G1 Therapeutics, Inc., priority 2018, published 2020)

Tests used:
Type in all cases: biochemical
CDK4/Cyclin D1 = CDK4/Cyclin D1 (Homo sapiens, UniProt P11802); experiment: CDK4/Cyclin D1 kinase assay (Nanosyn, Caliper microfluidic); details: 12-point dose-response, ATP at Km (200 μM), 3 hr; Table 4
How it was run: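 Caliper microfluidic mobility-shift read-out, 12-point dose-response in singlicate. 1 nM enzyme, 200 μM ATP (Km), 1 μM peptide substrate, 3 hr incubation; staurosporine as reference.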

CDK9/Cyclin T = CDK9/Cyclin T (Homo sapiens, UniProt P50750); experiment: CDK9/Cyclin T kinase assay (Nanosyn, Caliper microfluidic); details: 12-point dose-response, ATP at Km (10 μM), 17 hr; Table 5
How it was run: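 Caliper microfluidic mobility-shift read-out, 12-point dose-response in singlicate at ATP Km with 1 μM peptide substrate; staurosporine reference.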

CDK2/Cyclin E = CDK2/Cyclin E (Homo sapiens, UniProt P24941); experiment: CDK2/Cyclin E kinase assay (Nanosyn, Caliper microfluidic); details: 12-point dose-response, ATP at Km (100 μM), 3 hr
How it was run: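 Caliper microfluidic mobility-shift readout of phosphorylation of 1 μM substrate peptide by 0.15 nM enzyme at 100 μM ATP (stated as Km), 3 hr incubation. 12-point dose-response in singlicate, staurosporine as reference.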

CDK5/p25 = CDK5/p25 (Homo sapiens, UniProt Q00535); experiment: CDK5/p25 kinase assay (Nanosyn, Caliper microfluidic); details: 12-point dose-response, ATP at Km (20 μM), 3 hr
How it was run: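 Caliper microfluidic mobility-shift assay, 12-point dose-response in singlicate. CDK5/p25 at 0.1 nM with 20 μM ATP (Km) and 1 μM peptide substrate. Incubation 3 hr.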

CDK7/Cyclin H = CDK7/Cyclin H (Homo sapiens, UniProt P50613); experiment: CDK7/Cyclin H kinase assay (Nanosyn, Caliper microfluidic); details: 12-point dose-response, ATP at Km (50 μM), 17 hr
How it was run: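 Caliper microfluidic mobility-shift assay with 10 nM CDK7/Cyclin H, 50 μM ATP (Km) and 1 μM peptide substrate, incubated 17 hr. Compounds run in 12-point dose-response, singlicate.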

CDK1/Cyclin B1 = CDK1/Cyclin B1 (Homo sapiens, UniProt P06493); experiment: CDK1/Cyclin B1 kinase assay (Nanosyn, Caliper microfluidic); details: 12-point dose-response, ATP at Km (40 μM), 3 hr
How it was run: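 Mobility-shift microfluidic kinase assay, 12-point dose-response in singlicate. Conditions: 0.08 nM enzyme, 40 μM ATP (Km), 1 μM peptide substrate, 3 hr incubation; staurosporine as reference.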

CDK5/p35 = CDK5/p35 (Homo sapiens, UniProt Q00535); experiment: CDK5/p35 kinase assay (Nanosyn, Caliper microfluidic); details: 12-point dose-response, ATP at Km (20 μM), 3 hr
How it was run: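 Microfluidic mobility-shift kinase assay with 0.05 nM CDK5/p35, 20 μM ATP (Km) and 1 μM peptide substrate, 3 hr incubation. Compounds tested as 12-point dose–response in singlicate; staurosporine as reference.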

CDK2/Cyclin A = CDK2/Cyclin A (Homo sapiens, UniProt P24941); experiment: CDK2/Cyclin A kinase assay (Nanosyn, Caliper microfluidic); details: 12-point dose-response, ATP at Km (50 μM), 3 hr
How it was run: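 Caliper microfluidic mobility-shift read-out; 0.1 nM enzyme, 50 μM ATP (Km), 1 μM peptide substrate, 3 hr incubation. 12-point dose-response in singlicate; staurosporine as reference.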

CDK3/Cyclin E = CDK3/Cyclin E (Homo sapiens, UniProt Q00526); experiment: CDK3/Cyclin E kinase assay (Nanosyn, Caliper microfluidic); details: 12-point dose-response, ATP at Km (400 μM), 3 hr
How it was run: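 Caliper microfluidic mobility-shift read-out with 1 nM enzyme, 400 μM ATP (stated as Km) and 1 μM peptide substrate, 3 hr incubation. Compounds run as 12-point dose-response in singlicate.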

CDK6/Cyclin D3 = CDK6/Cyclin D3 (Homo sapiens, UniProt Q00534); experiment: CDK6/Cyclin D3 kinase assay (Nanosyn, Caliper microfluidic); details: 12-point dose-response, ATP at Km (300 μM), 3 hr
How it was run: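 Caliper microfluidic assay with 2 nM enzyme, 300 μM ATP and 1 μM phosphoacceptor peptide, incubated for 3 hr. Compounds were run as 12-point dose-response curves in singlicate.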

Sequence of CDK4/Cyclin D1 (P11802 whole entry): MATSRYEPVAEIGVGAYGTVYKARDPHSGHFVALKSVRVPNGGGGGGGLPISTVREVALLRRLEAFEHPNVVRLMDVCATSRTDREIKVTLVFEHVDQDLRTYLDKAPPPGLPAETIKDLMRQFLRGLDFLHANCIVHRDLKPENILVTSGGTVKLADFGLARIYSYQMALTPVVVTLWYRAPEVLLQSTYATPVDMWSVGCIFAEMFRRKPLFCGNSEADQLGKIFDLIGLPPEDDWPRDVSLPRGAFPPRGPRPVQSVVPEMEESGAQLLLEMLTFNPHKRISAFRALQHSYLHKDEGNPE
Sequence of CDK4/Cyclin D1 (P24385 whole entry partner): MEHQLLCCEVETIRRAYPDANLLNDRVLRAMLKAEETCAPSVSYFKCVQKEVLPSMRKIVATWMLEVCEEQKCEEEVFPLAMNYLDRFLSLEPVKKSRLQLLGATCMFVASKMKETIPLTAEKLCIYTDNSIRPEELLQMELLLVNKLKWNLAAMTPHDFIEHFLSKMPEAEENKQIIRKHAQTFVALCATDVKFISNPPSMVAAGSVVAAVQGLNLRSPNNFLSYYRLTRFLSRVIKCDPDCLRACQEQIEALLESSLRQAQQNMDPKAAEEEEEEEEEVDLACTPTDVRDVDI
Sequence of CDK5/p25 (Q00535 whole entry): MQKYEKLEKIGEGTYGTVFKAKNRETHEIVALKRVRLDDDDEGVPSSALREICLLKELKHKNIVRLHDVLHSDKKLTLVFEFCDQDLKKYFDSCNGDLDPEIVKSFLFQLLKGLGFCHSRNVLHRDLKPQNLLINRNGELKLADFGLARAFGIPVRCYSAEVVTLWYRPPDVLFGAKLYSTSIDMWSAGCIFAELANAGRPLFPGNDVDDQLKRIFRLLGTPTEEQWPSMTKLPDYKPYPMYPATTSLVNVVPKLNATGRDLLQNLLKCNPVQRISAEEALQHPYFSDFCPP
Sequence of CDK5/p25 (Q15078 99-307 partner limits assumed): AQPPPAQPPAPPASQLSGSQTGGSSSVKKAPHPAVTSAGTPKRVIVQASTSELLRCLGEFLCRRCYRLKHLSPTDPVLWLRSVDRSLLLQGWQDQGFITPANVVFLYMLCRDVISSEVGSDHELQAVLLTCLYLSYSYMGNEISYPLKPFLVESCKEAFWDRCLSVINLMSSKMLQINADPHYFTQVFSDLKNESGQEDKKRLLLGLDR
Sequence of CDK5/p35 (Q00535 whole entry): as the sequence (Q00535 whole entry) above
Sequence of CDK5/p35 (Q15078 whole entry partner): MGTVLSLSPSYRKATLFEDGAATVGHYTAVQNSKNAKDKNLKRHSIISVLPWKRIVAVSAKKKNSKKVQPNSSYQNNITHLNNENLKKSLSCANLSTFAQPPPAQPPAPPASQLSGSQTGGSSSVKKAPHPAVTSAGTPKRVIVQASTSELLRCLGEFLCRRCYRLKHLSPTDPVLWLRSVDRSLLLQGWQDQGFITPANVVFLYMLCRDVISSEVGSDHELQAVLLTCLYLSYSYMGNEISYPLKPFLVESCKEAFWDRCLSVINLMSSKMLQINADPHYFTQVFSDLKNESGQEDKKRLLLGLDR
Sequence of CDK1/Cyclin B1 (P06493 whole entry): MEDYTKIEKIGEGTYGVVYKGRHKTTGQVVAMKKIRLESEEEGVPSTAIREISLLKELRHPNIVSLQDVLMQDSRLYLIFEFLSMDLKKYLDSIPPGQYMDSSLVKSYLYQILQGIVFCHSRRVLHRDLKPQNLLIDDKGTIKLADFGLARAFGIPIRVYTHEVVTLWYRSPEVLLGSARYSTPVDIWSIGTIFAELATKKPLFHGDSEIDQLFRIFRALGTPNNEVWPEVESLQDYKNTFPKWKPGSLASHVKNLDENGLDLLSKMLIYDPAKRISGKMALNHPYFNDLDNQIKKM
Sequence of CDK1/Cyclin B1 (P14635 whole entry partner): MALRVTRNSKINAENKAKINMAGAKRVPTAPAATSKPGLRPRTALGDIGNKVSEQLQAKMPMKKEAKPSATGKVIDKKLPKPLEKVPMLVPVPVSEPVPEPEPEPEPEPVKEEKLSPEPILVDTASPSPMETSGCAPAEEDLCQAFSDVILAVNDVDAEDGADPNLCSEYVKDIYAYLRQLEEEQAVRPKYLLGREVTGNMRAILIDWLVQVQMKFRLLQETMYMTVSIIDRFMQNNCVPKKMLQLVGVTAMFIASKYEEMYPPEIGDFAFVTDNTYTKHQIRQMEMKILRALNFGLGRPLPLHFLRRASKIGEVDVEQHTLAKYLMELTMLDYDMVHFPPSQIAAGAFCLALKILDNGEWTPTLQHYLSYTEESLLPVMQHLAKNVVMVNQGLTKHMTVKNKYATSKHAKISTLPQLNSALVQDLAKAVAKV
Sequence of CDK7/Cyclin H (P50613 whole entry): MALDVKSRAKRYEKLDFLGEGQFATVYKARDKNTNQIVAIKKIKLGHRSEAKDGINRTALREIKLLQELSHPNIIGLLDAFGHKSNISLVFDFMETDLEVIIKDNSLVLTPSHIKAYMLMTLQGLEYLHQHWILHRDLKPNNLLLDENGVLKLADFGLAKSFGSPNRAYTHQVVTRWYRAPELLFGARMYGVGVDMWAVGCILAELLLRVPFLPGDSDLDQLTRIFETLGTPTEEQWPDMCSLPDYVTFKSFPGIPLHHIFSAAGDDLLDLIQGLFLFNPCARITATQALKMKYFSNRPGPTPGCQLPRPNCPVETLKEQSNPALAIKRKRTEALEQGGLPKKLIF
Sequence of CDK7/Cyclin H (P51946 whole entry partner): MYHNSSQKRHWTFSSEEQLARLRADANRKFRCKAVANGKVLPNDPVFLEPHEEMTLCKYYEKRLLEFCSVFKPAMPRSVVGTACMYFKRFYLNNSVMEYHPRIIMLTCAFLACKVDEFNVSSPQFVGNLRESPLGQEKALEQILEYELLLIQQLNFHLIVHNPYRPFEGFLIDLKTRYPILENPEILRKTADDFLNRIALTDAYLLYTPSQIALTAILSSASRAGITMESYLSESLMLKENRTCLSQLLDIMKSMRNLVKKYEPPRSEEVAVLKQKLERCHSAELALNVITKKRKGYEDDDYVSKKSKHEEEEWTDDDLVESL
Sequence of CDK7/Cyclin H (P51948 whole entry partner): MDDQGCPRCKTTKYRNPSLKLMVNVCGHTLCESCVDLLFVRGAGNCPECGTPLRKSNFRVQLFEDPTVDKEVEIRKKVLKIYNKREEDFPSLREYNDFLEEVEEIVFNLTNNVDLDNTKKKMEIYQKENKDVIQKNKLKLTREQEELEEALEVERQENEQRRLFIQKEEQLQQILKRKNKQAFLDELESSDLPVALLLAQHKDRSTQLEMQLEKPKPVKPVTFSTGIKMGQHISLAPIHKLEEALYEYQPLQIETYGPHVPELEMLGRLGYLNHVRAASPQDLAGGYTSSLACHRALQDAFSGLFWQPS
Sequence of CDK6/Cyclin D3 (Q00534 whole entry): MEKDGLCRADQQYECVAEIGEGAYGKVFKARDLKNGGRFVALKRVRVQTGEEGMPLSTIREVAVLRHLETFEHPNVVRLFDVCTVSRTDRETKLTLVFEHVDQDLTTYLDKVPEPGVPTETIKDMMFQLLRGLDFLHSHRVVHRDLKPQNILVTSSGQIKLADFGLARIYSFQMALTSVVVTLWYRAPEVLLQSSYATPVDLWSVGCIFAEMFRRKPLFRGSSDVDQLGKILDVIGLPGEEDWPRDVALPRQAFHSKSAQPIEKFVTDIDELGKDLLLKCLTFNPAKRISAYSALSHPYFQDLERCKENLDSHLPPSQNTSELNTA
Sequence of CDK6/Cyclin D3 (P30281 whole entry partner): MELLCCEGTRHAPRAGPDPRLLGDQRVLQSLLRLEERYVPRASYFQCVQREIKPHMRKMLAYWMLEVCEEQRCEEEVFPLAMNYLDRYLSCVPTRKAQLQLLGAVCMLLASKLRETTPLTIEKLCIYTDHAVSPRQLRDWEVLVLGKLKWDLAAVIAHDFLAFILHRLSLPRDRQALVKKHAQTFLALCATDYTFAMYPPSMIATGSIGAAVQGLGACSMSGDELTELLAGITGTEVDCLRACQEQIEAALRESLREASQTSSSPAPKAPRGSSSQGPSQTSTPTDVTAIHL

| SMILES | IC50 (CDK4/Cyclin D1) | IC50 (CDK9/Cyclin T) | IC50 (CDK2/Cyclin E) | IC50 (CDK5/p25) | IC50 (CDK7/Cyclin H) | IC50 (CDK1/Cyclin B1) | IC50 (CDK5/p35) | IC50 (CDK2/Cyclin A) | IC50 (CDK3/Cyclin E) | IC50 (CDK6/Cyclin D3) |
| --- | --- | --- | --- | --- | --- | --- | --- | --- | --- | --- |
| O=C1NCC2(CCCCC2)n2c1cc1cnc(N[C@H]3CC[C@H](N4CCOCC4)CC3)nc12 [Compound 44, 2′-(((1,4-trans)-4-morpholinocyclohexyl)amino)-7′,8′-dihydro-6′H-spiro[cyclohexane-1,9′-pyrazino[1′,2′:1,5]pyrrolo[2,3-d]pyrimidin]-6′-one] | 24 nM | 6.2 nM | 290 nM | 270 nM | 270 nM | 490 nM | 320 nM | 170 nM | 470 nM | 100 nM |
| O=C1NCC2(CCCCC2)n2c1cc1cnc(NC(=O)[C@H]3CCNC3)nc12 [Compound 33, (S)-N-(6′-oxo-7′,8′-dihydro-6′H-spiro[cyclohexane-1,9′-pyrazino[1′,2′:1,5]pyrrolo[2,3-d]pyrimidin]-2′-yl)pyrrolidine-3-carboxamide] | 3300 nM | 35 nM | 26000 nM | 34000 nM | 20000 nM | 16000 nM | 34000 nM | 6100 nM | 23000 nM | 12000 nM |
| O=C1NCC2(CCCCC2)n2c1cc1cnc(N[C@H]3CC[C@H](N4CCCCC4)CC3)nc12 [Compound 46, 2′-(((1,4-trans)-4-(piperidin-1-yl)cyclohexyl)amino)-7′,8′-dihydro-6′H-spiro[cyclohexane-1,9′-pyrazino[1′,2′:1,5]pyrrolo[2,3-d]pyrimidin]-6′-one] | 21 nM | 6.4 nM | 470 nM | 760 nM | 280 nM | 510 nM | 710 nM | 250 nM | 520 nM | 78 nM |
| C[C@H]1CC[C@H](Nc2ncc3cc4n(c3n2)C2(CCCCC2)CN=C4)CC1 [Compound 54, N-((1r,4r)-4-methylcyclohexyl)-8′H-spiro[cyclohexane-1,9′-pyrazino[1′,2′:1,5]pyrrolo[2,3-d]pyrimidin]-2′-amine] | 670 nM | 600 nM | 260 nM | 660 nM | 3600 nM | 1700 nM | 740 nM | 420 nM | 640 nM | 2000 nM |
| O=C1NCC2(CCCCC2)n2c1cc1cnc(N[C@@H]3CCCNC3)nc12 [Compound 48, (R)-2′-(piperidin-3-ylamino)-7′,8′-dihydro-6′H-spiro[cyclohexane-1,9′-pyrazino[1′,2′:1,5]pyrrolo[2,3-d]pyrimidin]-6′-one] | 51 nM | 9 nM | 1100 nM | 1200 nM | 330 nM | 510 nM | 1300 nM | 390 nM | 1000 nM | 230 nM |
| O=C1NCC2(CCCCC2)n2c1cc1cnc(N[C@H]3CCCNC3)nc12 [Compound 47, (S)-2′-(piperidin-3-ylamino)-7′,8′-dihydro-6′H-spiro[cyclohexane-1,9′-pyrazino[1′,2′:1,5]pyrrolo[2,3-d]pyrimidin]-6′-one] | 130 nM | 2.6 nM | 550 nM | 230 nM | 27 nM | 170 nM | 250 nM | 350 nM | 110 nM | 370 nM |
| O=C1NCC2(CCCCC2)n2c1cc1cnc(N[C@H]3CC[C@H](NCc4ccccc4F)CC3)nc12 [Compound 20, 2′-(((1,4-trans)-4-((2-fluorobenzyl)amino)cyclohexyl)amino)-7′,8′-dihydro-6′H-spiro[cyclohexane-1,9′-pyrazino[1′,2′:1,5]pyrrolo[2,3-d]pyrimidin]-6′-one] | 14 nM | 4.7 nM | 310 nM | 370 nM | 230 nM | 360 nM | 370 nM | 180 nM | 400 nM | 78 nM |
| O=C1NCC2(CCCCC2)n2c1cc1cnc(NC(=O)[C@@H]3CCNC3)nc12 [Compound 32, (R)-N-(6′-oxo-7′,8′-dihydro-6′H-spiro[cyclohexane-1,9′-pyrazino[1′,2′:1,5]pyrrolo[2,3-d]pyrimidin]-2′-yl)pyrrolidine-3-carboxamide] | 2300 nM | 12 nM | 12000 nM | 19000 nM | 12000 nM | 5600 nM | 16000 nM | 3100 nM | 8600 nM | 14000 nM |
| O=C1NCC2(CCCCC2)n2c1cc1cnc(N[C@@H]3CCCN[C@@H]3c3ccccc3)nc12 [Compound 9, 2′-(((2R,3R)-2-phenylpiperidin-3-yl)amino)-7′,8′-dihydro-6′H-spiro[cyclohexane-1,9′-pyrazino[1′,2′:1,5]pyrrolo[2,3-d]pyrimidin]-6'-one] | 120 nM | 1600 nM | > 100000 nM | > 100000 nM | 20000 nM | 82000 nM | > 100000 nM | 71000 nM | > 100000 nM | 12000 nM |
| N[C@H]1CC[C@H](Nc2ncc3cc4n(c3n2)C2(CCCCC2)CNC4=O)CC1 [Compound 49, 2′-(((1r,4r)-4-aminocyclohexyl)amino)-7′,8′-dihydro-6′H-spiro[cyclohexane-1,9′-pyrazino[1′,2′:1,5]pyrrolo[2,3-d]pyrimidin]-6′-one] | 6.8 nM | 2.2 nM | 72 nM | 140 nM | 100 nM | 140 nM | 160 nM | 33 nM | 110 nM | 40 nM |
| CN(C)[C@H]1CC[C@H](Nc2ncc3cc4n(c3n2)C2(CCCCC2)CNC4=O)CC1 [Compound 45, 2′-(((1,4-trans)-4-(dimethylamino)cyclohexyl)amino)-7′,8′-dihydro-6′H-spiro[cyclohexane-1,9′-pyrazino[1′,2′:1,5]pyrrolo[2,3-d]pyrimidin]-6′-one] | 11 nM | 3.3 nM | 260 nM | 360 nM | 86 nM | 270 nM | 310 nM | 140 nM | 240 nM | 47 nM |
| O=C1NCC2(CCCCC2)n2c1cc1cnc(N[C@H]3CCCNC3=O)nc12 [Compound 23, (S)-2′-((2-oxopiperidin-3-yl)amino)-7′,8′-dihydro-6′H-spiro[cyclohexane-1,9′-pyrazino[1′,2′:1,5]pyrrolo[2,3-d]pyrimidin]-6′-one] | 170 nM | 690 nM | 35000 nM | 55000 nM | 61000 nM | 39000 nM | 47000 nM | 28000 nM | 56000 nM | 940 nM |
| CN1CCN([C@H]2CC[C@@H](Nc3ncc4cc5n(c4n3)C3(CCCCC3)CNC5=S)CC2)CC1 [Compound 39, 2′-(((1s,4s)-4-(4-methylpiperazin-1-yl)cyclohexyl)amino)-7′,8′-dihydro-6′H-spiro[cyclohexane-1,9′-pyrazino[1′,2′:1,5]pyrrolo[2,3-d]pyrimidine]-6′-thione] | 9.5 nM | 13 nM | 300 nM | 1600 nM | 500 nM | 1200 nM | 1500 nM | 140 nM | 420 nM | 48 nM |
